Test results as given in the Deep4Chem optical property database.
Blank lines part the entries; values can stand above or below the molecule they belong to.

Experiment: photoluminescence quantum yield (fraction); solvent given as SMILES

Structure (SMILES): O=C1/C(=C\c2ccc3oc4ccccc4c3c2)S(=O)(=O)c2ccccc21
photoluminescence quantum yield (in C1CCOC1): 0.037
photoluminescence quantum yield (in C1COCCO1): 0.047
photoluminescence quantum yield (in CC#N): 0.041
photoluminescence quantum yield (in CC(C)=O): 0.055
photoluminescence quantum yield (in CCOC(C)=O): 0.048
photoluminescence quantum yield (in CN(C)C=O): 0.192
photoluminescence quantum yield (in CO): 0.025
photoluminescence quantum yield (in CS(C)=O): 0.209
photoluminescence quantum yield (in Cc1ccccc1): 0.116
photoluminescence quantum yield (in ClC(Cl)Cl): 0.036
photoluminescence quantum yield (in ClCCl): 0.092

photoluminescence quantum yield (in O): 0.28
Structure (SMILES): COc1cc(-c2cc(N3CCCCC3)c(C#N)c3c2-c2cccc4cccc-3c24)cc(OC)c1OC

Structure (SMILES): CCCCCCCCCC1(CCCCCCCCC)c2cc(C#Cc3ccc(/C=C/c4ccc(N(CCCCCCCC)CCCCCCCC)cc4)cc3)ccc2-c2ccc(C#Cc3ccc(/C=C/c4ccc(N(CCCCCCCC)CCCCCCCC)cc4)cc3)cc21
photoluminescence quantum yield (in Cc1ccccc1): 0.61

Structure (SMILES): CCC1=C(C)C2=C(c3cc(C(=O)Cl)cc(C4=C5C(C)=C(CC)C(C)=[N+]5[B-](F)(F)n5c(C)c(CC)c(C)c54)c3)c3c(C)c(CC)c(C)n3[B-](F)(F)[N+]2=C1C
photoluminescence quantum yield (in C1CCOC1): 0.87
photoluminescence quantum yield (in CC#N): 0.41
photoluminescence quantum yield (in CN(C)C=O): 0.61
photoluminescence quantum yield (in Cc1ccccc1): 0.83
photoluminescence quantum yield (in ClC(Cl)Cl): 0.7

photoluminescence quantum yield (in C1CCOC1): 0.499
Structure (SMILES): CCCCCOc1cc2oc(=O)c3c4ccc(C#N)cc4c4ccc5cccc6c(c1)c2c3c4c56

photoluminescence quantum yield (in CC#N): 0.01
Structure (SMILES): Fc1nc(F)c(F)c(/C=C2/C(c3c(F)c(F)nc(F)c3F)=Cc3ccccc32)c1F

photoluminescence quantum yield (in C1CCOC1): 0.06
Structure (SMILES): CCCCCCCCCCCCOc1cc(C(=O)Nc2ccc(-c3ccc4c(c3)C(=O)c3cc(-c5ccc(NC(=O)c6cc(OCCCCCCCCCCCC)c(OCCCCCCCCCCCC)c(OCCCCCCCCCCCC)c6)cc5)ccc3-4)cc2)cc(OCCCCCCCCCCCC)c1OCCCCCCCCCCCC

photoluminescence quantum yield (in ClCCl): 0
Structure (SMILES): Cc1cc2ccccc2c2c1c1ccccc1n2-c1ncccn1

photoluminescence quantum yield (in ClCCl): 0.11
Structure (SMILES): COc1ccc(O)c(-c2nc(C)c3n2CCCC3)c1

photoluminescence quantum yield (in CS(C)=O): 0.48
Structure (SMILES): Clc1ccccc1-c1nc2sc3ccccc3c2s1

photoluminescence quantum yield (in CC#N): 0.33
photoluminescence quantum yield (in CO): 0.04
photoluminescence quantum yield (in ClCCl): 0.93
Structure (SMILES): COc1cc(C=O)cc(-c2[nH]c(=O)n3c2-c2ccccc2C3=O)c1O

photoluminescence quantum yield (in ClCCl): 0.37
Structure (SMILES): Clc1ccc(C2=C(c3ccc(Cl)cc3)c3cccc4c3c(cc3nc5ccccc5nc34)O2)cc1

photoluminescence quantum yield (in C1CCOC1): 0.41
photoluminescence quantum yield (in ClCCl): 0.38
Structure (SMILES): Cc1ccc(-c2ccc3ccc4cc(C(C)(C)C)cc5ccc2c3c45)cc1

photoluminescence quantum yield (in CO): 0.0013
Structure (SMILES): C(/C=C/C1=[NH+]c2cccc3cccc1c23)=c1/[nH]c2cccc3cccc1c32

Structure (SMILES): COC(=O)/C(C#N)=c1\s/c(=c2/s/c(=C(/C#N)C(=O)OC)c3cc(-c4ccc(C(F)(F)F)cc4)sc23)c2sc(-c3ccc(C(F)(F)F)cc3)cc12
photoluminescence quantum yield (in Cc1ccccc1): 0.212

photoluminescence quantum yield (in c1ccccc1): 0.046
Structure (SMILES): CCOC(=O)c1sc2nc3c(c(C#N)c2c1N)CCCC3

photoluminescence quantum yield (in ClCCl): 0
Structure (SMILES): COc1ccc2cc(C3=[N+]4C(=Nc5c(-c6ccc7ccccc7c6)c(Br)c(-c6ccc7cc(OC)ccc7c6)n5[B-]4(F)F)C(c4ccc5ccccc5c4)=C3Br)ccc2c1

photoluminescence quantum yield (in C1CCOC1): 0.39
Structure (SMILES): CCCc1ccc2c(c1)cc1n2B2c3c4c-1cccc4cc1cccc(c31)-c1cc3cc(CCC)ccc3n12

photoluminescence quantum yield (in CC#N): 0.09
photoluminescence quantum yield (in CO): 0.034
photoluminescence quantum yield (in ClC(Cl)Cl): 0.055
photoluminescence quantum yield (in c1ccccc1): 0.08
Structure (SMILES): CC(C)(C)C1Nc2ccccc2C(=O)N1Cc1ccccc1 (stereo not drawn)

photoluminescence quantum yield (in CO): 0.14
photoluminescence quantum yield (in CS(C)=O): 0.12
photoluminescence quantum yield (in O): 0.02
Structure (SMILES): CCCN1/C(=C/C=C(/C=C/C2=[N+](CCC)c3ccccc3C2(C)C)c2cc[n+](C)cc2)C(C)(C)c2ccccc21

photoluminescence quantum yield (in ClCCCl): 0.022
Structure (SMILES): N#Cc1ccc2nc3[nH]c(=O)[nH]c(=O)c3nc2c1

photoluminescence quantum yield (in CC#N): 0.27
photoluminescence quantum yield (in CCCCCC): 0.35
Structure (SMILES): C/C=C/c1ccc(OC)cc1

photoluminescence quantum yield (in ClC(Cl)Cl): 0.131
Structure (SMILES): F[B-]1(F)OC(c2ccccc2)=Cc2c3ccccc3c3ccccc3[n+]21

photoluminescence quantum yield (in CO): 0.004
Structure (SMILES): N#Cc1c(-n2cc(-c3ccccc3)nn2)n([C@H]2C[C@H](O)[C@@H](CO)O2)c2ncnc(N)c12

photoluminescence quantum yield (in CC#N): 0.048
Structure (SMILES): COc1ccc(-c2csc(/C(C#N)=C/c3ccc(Cl)cc3)n2)cc1
